Source: the NIST ThermoML archive (doi:10.1021/je8008649)

Experiment: mn = molality of the nth substance listed, in mol/kg
Details: 101 kPa, Liquid

NO.O=S(=O)(O)O [hydroxylammonium hydrogen sulfate] + O
Details	mass density, 283.15 K [kg/m3]	mass density, 288.15 K [kg/m3]	mass density, 293.15 K [kg/m3]	mass density, 298.15 K [kg/m3]	mass density, 303.15 K [kg/m3]	mass density, 308.15 K [kg/m3]	mass density, 313.15 K [kg/m3]	viscosity, 298.15 K [mPa·s]	viscosity, 303.15 K [mPa·s]	viscosity, 308.15 K [mPa·s]
m1 = 0.0075	1000.57	999.95	999.03	997.89	996.46	994.84	993	–	–	–
m1 = 0.0204	–	–	–	–	–	–	–	0.897	0.806	0.727
m1 = 0.038	1003.84	1003.18	1002.23	1001.03	999.59	997.95	996.09	–	–	–
m1 = 0.0473	–	–	–	–	–	–	–	0.909	0.814	0.736
m1 = 0.0702	1007.27	1006.56	1005.58	1004.34	1002.88	1001.17	999.12	0.914	0.821	0.741
m1 = 0.2199	1022.47	1021.57	1020.43	1019.05	1017.48	1015.7	1013.04	–	–	–
m1 = 0.2315	–	–	–	–	–	–	–	0.968	0.869	0.787
m1 = 0.3709	1036.87	1035.81	1034.52	1033.05	1031.38	1029.51	1027.24	1.019	0.912	0.823
m1 = 0.4314	1042.64	1041.22	1039.97	1038.36	1036.73	1034.77	1032.85	1.035	0.927	0.838
m1 = 0.5334	1051.59	1050.39	1048.98	1047.39	1045.61	1043.69	1041.6	1.069	0.961	0.867
m1 = 0.8069	1075.32	1073.9	1071.96	1070.2	1068.3	1066.3	1064.15	1.167	1.053	0.95
m1 = 0.9684	1088.31	1086.8	1085.12	1083.29	1081.32	1079.23	1076.98	–	–	–
m1 = 1.044	–	–	–	–	–	–	–	1.256	1.128	1.02
m1 = 1.165	1103.23	1101.58	1099.81	1097.89	1095.85	1093.7	1091.42	–	–	–
m1 = 1.324	–	–	–	–	–	–	–	1.369	1.237	1.112
m1 = 1.478	1126.68	1124.91	1123	1120.96	1118.82	1116.5	1113.63	–	–	–
m1 = 1.589	–	–	–	–	–	–	–	1.483	1.333	1.201
m1 = 1.851	1151.94	1149.99	1147.92	1145.49	1142.34	1141.16	1138.36	–	–	–
m1 = 1.915	–	–	–	–	–	–	–	1.631	1.463	1.319
m1 = 2.088	–	–	–	–	–	–	–	1.732	1.542	1.386
m1 = 2.461	1188.98	1186.87	1184.69	1182.41	1180.07	1177.64	1175.14	–	–	–
m1 = 2.847	–	–	–	–	–	–	–	2.123	1.887	1.702
m1 = 2.998	1218.05	1215.84	1213.55	1211.21	1208.79	1206.32	1203.99	–	–	–
